Columns and labels:
P. acnes = experiment: Amotosalen and UV light (265-385 nm LEDs) treatment of P. acnes in plasma, colony forming unit assay; format: cell-based; details: 15 μM amotosalen, ~6.4 J/cm^2, plasma
From the text: (§1) This system comprised single arrays facing (e.g., opposing) a platform positioned for the illumination of biological fluids placed on the platform (see e.g., FIG. 5). System controls provided for adjustment of the LEDs during treatment of the biological fluid samples, controlling both the timing and intensity of illumination by the LEDs to achieve a desired light UV light dose. Evaluation of photochemical conversion, photoproduct formation, pathogen inactivation, and plasma and/or platelet quality parameters are performed for each light source wavelength as described previously. In one study using the device, photochemical inactivation of various bacteria were tested for each of the above-referenced LEDs together with amotosalen. The bacteria included E. coli (Gram negative), S. epidermidis (Gram positive), and P. acnes (anaerobe). As there are known germicidal effects of ultraviolet light with wavelengths in the UVC and UVB range, the study was controlled to determine for each LED wavelength the total inactivation levels, as well as inactivation levels specifically resulting from the UV light (without added amotosalen) or the photochemical treatment process itself.

[1] = Amotosalen concentration in platelets in 100% plasma (75 μM/340 nm or 150 μM/INT-100), HPLC; format: physicochemical
[2] = Photochemical conversion of S-59 (150 μM) and photoproduct profile in plasma, PAS or PAS+plasma units, HPLC; format: physicochemical
[3] = Plasma parameters pre- and post-illumination, whole-blood derived plasma, 50 μM amotosalen, ~6.4 J/cm^2
From the text: This pool and split format was repeated four times to generate four replicates.

S. epidermidis = experiment: Amotosalen and UV light (265-385 nm LEDs) treatment of S. epidermidis in plasma, colony forming unit assay; format: cell-based; details: 15 μM amotosalen, ~3 J/cm^2, plasma
From the text: as §1

[4] = 65/35 PAS+Plasma, 340 nm LED ~3.6 J/cm^2
[5] = 65/35 PAS+Plasma, 365 nm LED ~3.6 J/cm^2

## Cc1oc2c(C)c3oc(=O)cc(C)c3cc2c1COCCN [S-59, 3-(2-aminoethoxymethyl)-2,5,9-trimethylfuro[3,2-g]chromen-7-one]
P. acnes; 265 nm
  Log reduction from S-59: 1.60 log
  Log reduction total: 6.03 log
P. acnes; 280 nm
  Log reduction from S-59: 0.71 log
  Log reduction total: 1.09 log
P. acnes; 310 nm
  Log reduction from S-59: 5.67 log
  Log reduction total: 6.99 log
P. acnes; 325 nm
  Log reduction from S-59: 6.54 log
  Log reduction total: 6.69 log
P. acnes; 340 nm
  Log reduction from S-59: 6.78 log
  Log reduction total: 6.99 log
P. acnes; 365 nm
  Log reduction from S-59: 6.67 log
  Log reduction total: 6.99 log
P. acnes; 385 nm
  Log reduction from S-59: 1.64 log
  Log reduction total: 1.97 log
[1]; 340/~6.4 (75 μM input)
  % Residual S-59: 2.5%
[1]; 340/~6.4 (75 μM input), Post-UVA
  S-59 concentration: 2.4 µM
[1]; 340/~6.4 (75 μM input), Pre-UVA
  S-59 concentration: 93.3 µM
[1]; 340/~7.2 (75 μM input)
  % Residual S-59: 2.0%
[1]; 340/~7.2 (75 μM input), Post-UVA
  S-59 concentration: 1.9 µM
[1]; 340/~7.2 (75 μM input), Pre-UVA
  S-59 concentration: 94.0 µM
[1]; INT-100 (150 μM input), Post-CAD
  S-59 concentration: 0.2 µM
[1]; INT-100 (150 μM input), Pre-UVA
  S-59 concentration: 173.2 µM
[1]; INT-100 ~3.6 J/cm^2 (150 μM input)
  % Residual S-59: 40.1%
[1]; INT-100 ~3.6 J/cm^2 (150 μM input), Post-UVA
  S-59 concentration: 69.4 µM
[2]; [4]
  % of input S-59 remaining: 9.1%
  Post-illumination HPLC area counts: 1249
[2]; [5]
  % of input S-59 remaining: 46.2%
  Post-illumination HPLC area counts: 5889
[2]; PAS, 340 nm LED ~3 J/cm^2
  % of input S-59 remaining: 13.4%
  Post-illumination HPLC area counts: 1436
[2]; PAS, 365 nm LED ~3 J/cm^2
  % of input S-59 remaining: 36.8%
  Post-illumination HPLC area counts: 4118
[2]; PAS, INT100 ~6.4 J/cm^2
  % of input S-59 remaining: 26.2%
  Post-illumination HPLC area counts: 2905
[2]; Plasma, 340 nm LED ~6.4 J/cm^2
  % of input S-59 remaining: 33.1%
  Post-illumination HPLC area counts: 4957
[2]; Plasma, 365 nm LED ~6.4 J/cm^2
  % of input S-59 remaining: 66.8%
  Post-illumination HPLC area counts: 9675
[2]; Plasma, INT100 ~6.4 J/cm^2
  % of input S-59 remaining: 60.5%
  Post-illumination HPLC area counts: 8513
[3]; 340 nm, Post-UVA
  Factor II: 84.00 IU/dL
  Factor V: 88.83 IU/dL
  Factor VIII: 127.18 IU/dL
  Factor X: 84.68 IU/dL
  Factor XI: 73.93 IU/dL
  Fibrinogen: 259.75 mg/dL
  PT: 12.03 s
  Protein C: 122.33 IU/dL
  Protein S: 118.03 IU/dL
  Total Protein: 72.43 mg/mL
  aPTT: 33.95 s
  pCO2 @ 37° C.: 66.75 mmHg
  pH @ 37° C.: 7.20
  pO2 @ 37° C.: 42.88 mmHg
[3]; 340 nm, Pre-UVA
  Factor II: 93.43 IU/dL
  Factor V: 97.08 IU/dL
  Factor VIII: 165.50 IU/dL
  Factor X: 96.68 IU/dL
  Factor XI: 85.65 IU/dL
  Fibrinogen: 290.00 mg/dL
  PT: 11.68 s
  Protein C: 133.90 IU/dL
  Protein S: 119.00 IU/dL
  Total Protein: 72.13 mg/mL
  aPTT: 31.15 s
  pCO2 @ 37° C.: 67.38 mmHg
  pH @ 37° C.: 7.19
  pO2 @ 37° C.: 131.80 mmHg
[3]; INT-100, Post-UVA
  Factor II: 110.93 IU/dL
  Factor V: 90.25 IU/dL
  Factor VIII: 108.85 IU/dL
  Factor X: 84.53 IU/dL
  Factor XI: 76.63 IU/dL
  Fibrinogen: 261.50 mg/dL
  PT: 12.28 s
  Protein C: 109.30 IU/dL
  Protein S: 121.80 IU/dL
  Total Protein: 70.35 mg/mL
  aPTT: 33.98 s
  pCO2 @ 37° C.: 60.68 mmHg
  pH @ 37° C.: 7.24
  pO2 @ 37° C.: 41.55 mmHg
[3]; INT-100, Pre-UVA
  Factor II: 91.45 IU/dL
  Factor V: 98.55 IU/dL
  Factor VIII: 154.25 IU/dL
  Factor X: 92.40 IU/dL
  Factor XI: 89.55 IU/dL
  Fibrinogen: 278.75 mg/dL
  PT: 11.48 s
  Protein C: 98.55 IU/dL
  Protein S: 111.88 IU/dL
  Total Protein: 80.18 mg/mL
  aPTT: 30.35 s
  pCO2 @ 37° C.: 69.20 mmHg
  pH @ 37° C.: 7.22
  pO2 @ 37° C.: 141.95 mmHg
S. epidermidis; 265 nm
  Log reduction from S-59: 0.89 log
  Log reduction total: 5.23 log
S. epidermidis; 280 nm
  Log reduction from S-59: 1.56 log
  Log reduction total: 5.02 log
S. epidermidis; 310 nm
  Log reduction from S-59: 6.68 log
  Log reduction total: 7.19 log
S. epidermidis; 325 nm
  Log reduction from S-59: 7.17 log
  Log reduction total: 7.18 log
S. epidermidis; 340 nm
  Log reduction from S-59: 7.18 log
  Log reduction total: 7.28 log
S. epidermidis; 365 nm
  Log reduction from S-59: 7.32 log
  Log reduction total: 7.26 log
S. epidermidis; 385 nm
  Log reduction from S-59: 1.85 log
  Log reduction total: 1.76 log
